This is an account of results in patent US20260297081A1, “COMPOUNDS AND METHODS OF TREATING CANCERS” (Cullgen Inc., priority 2023, published 2026).

The test system of this experiment is MCF7 cells. Nature of the experiment: Anti-proliferation (viability) of MCF7 cells (Table 7, FIG. 2B). The note with it: Homo sapiens, MCF7, MCF7 cells, 3-6 days, 10-point serial dilution; read-out: GI IC50 in MCF-7. The class given is cell-based.
For `CC(=O)c1c(C)c2cnc(Nc3ccc(N4CCN(C5(C(=O)NC6CC7(C6)CC(Nc6nc(NC(C)C)ccc6C(=O)Nc6cc(C)on6)C7)CC5)CC4)cn3)nc2n(C2CCCC2)c1=O` (stereo not drawn) [CPD-371, 2-((6-(1-(4-(6-((6-acetyl-8-cyclopentyl-5-methyl-7-oxo-7,8-dihydropyrido[2,3-d]pyrimidin-2-yl)amino)pyridin-3-yl)piperazin-1-yl)cyclopropane-1-carboxamido)spiro[3.3]heptan-2-yl)amino)-6-(isopropylamino)-N-(5-methylisoxazol-3-yl)nicotinamide], the IC50 was over 100 nM.

Consider `CC(=O)c1c(C)c2cnc(Nc3ccc(N4CCC5(CC4)CC5C(=O)NC4CC(Nc5nc(NC(C)C)ccc5C(=O)Nc5ccc(N(C)C)nn5)C4)cn3)nc2n(C2CCCC2)c1=O` (stereo not drawn) [CPD-413, 6-(6-((6-acetyl-8-cyclopentyl-5-methyl-7-oxo-7,8-dihydropyrido[2,3-d]pyrimidin-2-yl)amino)pyridin-3-yl)-N-(3-((3-((6-(dimethylamino)pyridazin-3-yl)carbamoyl)-6-(isopropylamino)pyridin-2-yl)amino)cyclobutyl)-6-azaspiro[2.5]octane-1-carboxamide], for which the IC50 was over 100 nM. Under `CCn1nc(NC(=O)c2ccc(NC)nc2NC2CC3(CC(NC(=O)CN4CCN(c5ccc(Nc6ncc7c(C)c(C(C)=O)c(=O)n(C8CCCC8)c7n6)nc5)CC4)C3)C2)cc1C` (stereo not drawn) [CPD-312, 2-((6-(2-(4-(6-((6-acetyl-8-cyclopentyl-5-methyl-7-oxo-7,8-dihydropyrido[2,3-d]pyrimidin-2-yl)amino)pyridin-3-yl)piperazin-1-yl)acetamido)spiro[3.3]heptan-2-yl)amino)-N-(1-ethyl-5-methyl-1H-pyrazol-3-yl)-6-(methylamino)nicotinamide] stands over 100 nM. Under `CC(=O)c1c(C)c2cnc(Nc3ccc(N4CCC(NCC(=O)N5CCC(Nc6nc(NC(C)C)ccc6C(=O)Nc6ccc(N(C)C)nn6)CC5)CC4)cn3)nc2n(C2CCCC2)c1=O` [CPD-357, 2-((1-((1-(6-((6-acetyl-8-cyclopentyl-5-methyl-7-oxo-7,8-dihydropyrido[2,3-d]pyrimidin-2-yl)amino)pyridin-3-yl)piperidin-4-yl)glycyl)piperidin-4-yl)amino)-N-(6-(dimethylamino)pyridazin-3-yl)-6-(isopropylamino)nicotinamide] stands under 50 nM. `CC(=O)c1c(C)c2cnc(Nc3ccc(CN4CCN(CC(=O)N5CCC(Nc6nc(NC(C)C)ccc6C(=O)Nc6cc(C)n(C)n6)CC5)CC4)cn3)nc2n(C2CCCC2)c1=O` [CPD-421, 2-((1-(2-(4-((6-((6-acetyl-8-cyclopentyl-5-methyl-7-oxo-7,8-dihydropyrido[2,3-d]pyrimidin-2-yl)amino)pyridin-3-yl)methyl)piperazin-1-yl)acetyl)piperidin-4-yl)amino)-N-(1,5-dimethyl-1H-pyrazol-3-yl)-6-(isopropylamino)nicotinamide]: the half-maximal inhibitory concentration (IC50) was over 100 nM. Under `[2H]C([2H])([2H])Nc1ccc(C(=O)Nc2ccc(N(C)C)nn2)c(NC2CC3(C2)CN(C(=O)CCN2CCN(c4ccc(Nc5ncc6c(C)c(C(C)=O)c(=O)n(C7CCCC7)c6n5)nc4)CC2)C3)n1` [CPD-432, 2-((2-(3-(4-(6-((6-acetyl-8-cyclopentyl-5-methyl-7-oxo-7,8-dihydropyrido[2,3-d]pyrimidin-2-yl)amino)pyridin-3-yl)piperazin-1-yl)propanoyl)-2-azaspiro[3.3]heptan-6-yl)amino)-N-(6-(dimethylamino)pyridazin-3-yl)-6-((methyl-d3)amino)nicotinamide] stands under 50 nM; under `[2H]C([2H])([2H])Nc1ccc(C(=O)Nc2ccc(N(C)C)nn2)c(NC2CC3(CC(NC(=O)CN4CCC5(CCN(c6ccc(Nc7ncc8c(C)c(C(C)=O)c(=O)n(C9CCCC9)c8n7)nc6)C5)C4)C3)C2)n1` (stereo not drawn) [CPD-449, 2-((6-(2-(7-(6-((6-acetyl-8-cyclopentyl-5-methyl-7-oxo-7,8-dihydropyrido[2,3-d]pyrimidin-2-yl)amino)pyridin-3-yl)-2,7-diazaspiro[4.4]nonan-2-yl)acetamido)spiro[3.3]heptan-2-yl)amino)-N-(6-(dimethylamino)pyridazin-3-yl)-6-((methyl-d3)amino)nicotinamide], under 50 nM; under `CNc1ccc(C(=O)Nc2ccc(N(C)C)nn2)c(NC2CC3(C2)CN(C(=O)C2CC(N4CCN(c5ccc(Nc6ncc7c(C)c(C(C)=O)c(=O)n(C8CCCC8)c7n6)nc5)CC4)C2)C3)n1` (stereo not drawn) [CPD-348, 2-((2-(3-(4-(6-((6-acetyl-8-cyclopentyl-5-methyl-7-oxo-7,8-dihydropyrido[2,3-d]pyrimidin-2-yl)amino)pyridin-3-yl)piperazin-1-yl)cyclobutane-1-carbonyl)-2-azaspiro[3.3]heptan-6-yl)amino)-N-(6-(dimethylamino)pyridazin-3-yl)-6-(methylamino)nicotinamide], over 100 nM. In the case of `CCCn1nc(NC(=O)c2ccc(NC)nc2NC2CC3(CC(NC(=O)CN4CCN(c5ccc(Nc6ncc7c(C)c(C(C)=O)c(=O)n(C8CCCC8)c7n6)nc5)CC4)C3)C2)cc1C` (stereo not drawn) [CPD-314, 2-((6-(2-(4-(6-((6-acetyl-8-cyclopentyl-5-methyl-7-oxo-7,8-dihydropyrido[2,3-d]pyrimidin-2-yl)amino)pyridin-3-yl)piperazin-1-yl)acetamido)spiro[3.3]heptan-2-yl)amino)-N-(5-methyl-1-propyl-1H-pyrazol-3-yl)-6-(methylamino)nicotinamide], the concentration for half-maximal inhibition (IC50) was over 100 nM.

As to `CC(=O)c1c(C)c2cnc(Nc3ccc(C4CCC(NCC(=O)N5CCC(Nc6nc(NC(C)C)ccc6C(=O)Nc6ccc(N(C)C)nn6)CC5)CC4)cn3)nc2n(C2CCCC2)c1=O` (stereo not drawn) [CPD-389, 2-((1-((4-(6-((6-acetyl-8-cyclopentyl-5-methyl-7-oxo-7,8-dihydropyrido[2,3-d]pyrimidin-2-yl)amino)pyridin-3-yl)cyclohexyl)glycyl)piperidin-4-yl)amino)-N-(6-(dimethylamino)pyridazin-3-yl)-6-(isopropylamino)nicotinamide], the IC50 was over 100 nM.

Take `COc1cccc(NC(=O)c2ccc(NC(C)C)nc2NC2CC3(CC(NC(=O)CN4CCN(c5ccc(Nc6ncc7c(C)c(C(C)=O)c(=O)n(C8CCCC8)c7n6)nc5)CC4)C3)C2)n1` (stereo not drawn) [CPD-453, 2-((6-(2-(4-(6-((6-acetyl-8-cyclopentyl-5-methyl-7-oxo-7,8-dihydropyrido[2,3-d]pyrimidin-2-yl)amino)pyridin-3-yl)piperazin-1-yl)acetamido)spiro[3.3]heptan-2-yl)amino)-6-(isopropylamino)-N-(6-methoxypyridin-2-yl)nicotinamide]: the concentration for half-maximal inhibition (IC50) is 50 to 100 nM. Under `[2H]C([2H])([2H])Nc1ccc(C(=O)Nc2cc(C)n(C)n2)c(NC2CC(C(C)NC(=O)CN3CCN(c4ccc(Nc5ncc6c(C)c(C(C)=O)c(=O)n(C7CCCC7)c6n5)nc4)CC3)C2)n1` (stereo not drawn) [CPD-353, 2-((3-(1-(2-(4-(6-((6-acetyl-8-cyclopentyl-5-methyl-7-oxo-7,8-dihydropyrido[2,3-d]pyrimidin-2-yl)amino)pyridin-3-yl)piperazin-1-yl)acetamido)ethyl)cyclobutyl)amino)-N-(1,5-dimethyl-1H-pyrazol-3-yl)-6-((methyl-d3)amino)nicotinamide] stands over 100 nM.

Usually IC50 stands for the point on the concentration scale where inhibition reaches its midpoint.
